Data: US20120027807A1, “TISSUE ENGINEERED MYOCARDIUM AND METHODS OF PRODUCTION AND USES THEREOF” (THE GENERAL HOSPITAL CORPORATION, priority 2008, published 2012)

Experiments:
[1] = system: R+G+ derived ventricular myocytes; format: cell-based, mouse
[2] = system: gap junctions (e.g. Connexin 43); experiment: Heptanol wash-in / wash-out on muscular thin film; format: cell-based, mouse
Excerpt: FIGS. 10A-10D show the tissue engineered myocardium on a muscular thin film derived from cardiac progenitor cells. […] All the heptanol was not washed-out resulting in the reduced contractility after cell-cell electrical coupling was restored.

SMILES | effect on the transmembrane action potential [1] | contractions after heptanol wash-out ([2]; partial wash-out) | coupling of cardiomyocytes by gap junctions ([2]; wash-in then wash-out of heptanol, MTF contractile force over time)
NC1=N[C@H](O)[C@H]2[C@H]3O[C@]4(O)O[C@@H]([C@@H](O)[C@@]2(N1)[C@@H]4O)[C@]3(O)CO [TTX, tetrodotoxin] | ablated the action potential |  | 
CCCCCCCO [heptanol] |  | partial washout restores contractions | reversibly blocked
